Drawing on ChEMBL document CHEMBL1138095, “From ligand to complexes: inhibition of human immunodeficiency virus type 1 integrase by beta-diketo acid metal complexes” (J Med Chem, 2006), this text covers IC50 for two compounds.

Structures are written as SMILES. Some results are limits rather than exact numbers.

For test [1], the target named is T1, Human immunodeficiency virus type 1 integrase (Human immunodeficiency virus 1, UniProt Q7ZJM1). Put plainly: Inhibition of HIV1 integrase 3' processing activity.
T1 sequence (Q7ZJM1 whole entry): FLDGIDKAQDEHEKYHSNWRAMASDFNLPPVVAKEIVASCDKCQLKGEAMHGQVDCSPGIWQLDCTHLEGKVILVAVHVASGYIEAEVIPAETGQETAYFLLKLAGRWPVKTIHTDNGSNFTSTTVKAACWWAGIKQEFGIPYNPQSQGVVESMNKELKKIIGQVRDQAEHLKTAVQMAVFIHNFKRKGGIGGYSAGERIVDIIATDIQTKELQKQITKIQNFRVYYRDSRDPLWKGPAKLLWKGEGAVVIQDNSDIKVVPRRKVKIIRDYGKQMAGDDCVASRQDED
For test [2], the target named is T1, Human immunodeficiency virus type 1 integrase. Put plainly: Inhibition of HIV1 integrase strand transfer activity.

For orientation: IC50 means the concentration needed to halve the response being measured. Low readings indicate inhibition by little substance, high ones a need for much substance. As for `COC(=O)C(=O)/C=C(\O)c1cccn1Cc1ccc(F)cc1`, the IC50 turned out to be 187 µM in test [1] and 48 µM in test [2].

Turning to `COC(=O)C(=O)/C=C(\O)c1ccccc1`, the IC50 in test [1] and in test [2] was over 333 µM throughout.
